Reference: publication PMC5513037, “Examining the influence of specificity ligands and ATP-competitive ligands on the overall effectiveness of bivalent kinase inhibitors” (Proteome Science, 2017)

What was measured:
Assay in all cases: KAM-matrix competition in K562 lysate;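 as to 0.001 uM KAM: median log10 fold change of treatment over DMSO control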;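 as to 0.01 uM KAM: median log10 fold change of treatment over DMSO control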;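 as to 0.1 uM KAM: median log10 fold change of treatment over DMSO control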;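 as to 1 uM KAM: median log10 fold change of treatment over DMSO control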;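 as to 10 uM KAM: median log10 fold change of treatment over DMSO control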
Type in all cases: binding
BLVRA = molecular target: T1, BLVRA (Homo sapiens, UniProt P53004);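 as to 0.001 uM KAM: median log10 fold change of treatment over DMSO control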;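 as to 0.01 uM KAM: median log10 fold change of treatment over DMSO control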;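 as to 0.1 uM KAM: median log10 fold change of treatment over DMSO control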;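 as to 1 uM KAM: median log10 fold change of treatment over DMSO control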;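 as to 10 uM KAM: median log10 fold change of treatment over DMSO control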
T1 construct: endogenous in cells; host or cells: K562
T1 sequence (P53004 3-296): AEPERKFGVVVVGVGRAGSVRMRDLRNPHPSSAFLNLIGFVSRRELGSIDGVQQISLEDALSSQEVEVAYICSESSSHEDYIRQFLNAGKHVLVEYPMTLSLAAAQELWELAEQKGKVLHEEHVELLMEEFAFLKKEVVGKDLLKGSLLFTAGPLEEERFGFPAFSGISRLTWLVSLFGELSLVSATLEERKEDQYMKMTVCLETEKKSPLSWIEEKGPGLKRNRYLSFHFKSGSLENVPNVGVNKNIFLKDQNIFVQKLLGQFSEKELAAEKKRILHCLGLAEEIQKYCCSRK
Description: (§1) Supplement 12953_2017_125_MOESM1_ESM.zip/MS_Supp Info.xlsx, sheet "KAM" | column: 10 uM KAM; 1 uM KAM; 0.1 uM KAM; 0.01 uM KAM; 0.001 uM KAM; RB50

JAK3 = molecular target: T2, JAK3 (Homo sapiens, UniProt P52333);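 as to 0.001 uM KAM: median log10 fold change of treatment over DMSO control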;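 as to 0.01 uM KAM: median log10 fold change of treatment over DMSO control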;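 as to 0.1 uM KAM: median log10 fold change of treatment over DMSO control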;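 as to 1 uM KAM: median log10 fold change of treatment over DMSO control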;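 as to 10 uM KAM: median log10 fold change of treatment over DMSO control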
T2 construct: endogenous in cells; host or cells: K562
T2 sequence (P52333 1-1124): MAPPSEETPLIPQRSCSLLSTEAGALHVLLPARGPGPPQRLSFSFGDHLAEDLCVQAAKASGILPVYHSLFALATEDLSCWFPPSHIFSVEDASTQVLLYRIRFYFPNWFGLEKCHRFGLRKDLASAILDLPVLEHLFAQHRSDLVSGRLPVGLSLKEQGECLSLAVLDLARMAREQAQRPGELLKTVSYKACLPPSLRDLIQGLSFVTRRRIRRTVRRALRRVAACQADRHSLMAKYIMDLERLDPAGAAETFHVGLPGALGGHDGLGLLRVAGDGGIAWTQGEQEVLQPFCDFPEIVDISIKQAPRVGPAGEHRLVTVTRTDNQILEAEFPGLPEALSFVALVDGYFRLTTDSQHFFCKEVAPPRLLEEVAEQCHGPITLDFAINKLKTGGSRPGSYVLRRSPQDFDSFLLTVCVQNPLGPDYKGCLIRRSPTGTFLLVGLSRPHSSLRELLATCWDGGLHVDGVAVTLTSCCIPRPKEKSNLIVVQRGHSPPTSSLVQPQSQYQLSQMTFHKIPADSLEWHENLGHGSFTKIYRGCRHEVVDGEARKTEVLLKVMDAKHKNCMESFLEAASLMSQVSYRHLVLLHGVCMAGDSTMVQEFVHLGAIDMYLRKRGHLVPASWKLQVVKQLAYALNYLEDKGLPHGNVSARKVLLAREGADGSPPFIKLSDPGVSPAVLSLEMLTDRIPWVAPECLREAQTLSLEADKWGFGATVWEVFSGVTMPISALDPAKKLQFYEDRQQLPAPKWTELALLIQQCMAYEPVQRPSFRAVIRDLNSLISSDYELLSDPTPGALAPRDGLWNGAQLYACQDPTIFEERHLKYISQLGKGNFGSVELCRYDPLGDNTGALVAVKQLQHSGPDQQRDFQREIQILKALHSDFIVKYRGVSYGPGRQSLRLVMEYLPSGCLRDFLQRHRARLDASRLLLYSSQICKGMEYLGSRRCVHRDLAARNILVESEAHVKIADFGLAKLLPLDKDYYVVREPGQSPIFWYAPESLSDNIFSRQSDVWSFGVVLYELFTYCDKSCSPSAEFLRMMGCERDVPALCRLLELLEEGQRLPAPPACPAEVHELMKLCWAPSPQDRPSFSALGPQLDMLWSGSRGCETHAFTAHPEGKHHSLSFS
Description: as §1

MAPKAPK2 = molecular target: T3, MAPKAPK2 (Homo sapiens, UniProt P49137);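 as to 0.001 uM KAM: median log10 fold change of treatment over DMSO control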;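 as to 0.01 uM KAM: median log10 fold change of treatment over DMSO control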;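 as to 0.1 uM KAM: median log10 fold change of treatment over DMSO control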;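 as to 1 uM KAM: median log10 fold change of treatment over DMSO control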;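 as to 10 uM KAM: median log10 fold change of treatment over DMSO control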
T3 construct: endogenous in cells; host or cells: K562
Description: as §1

NME3 = molecular target: T4, NME3 (Homo sapiens, UniProt Q13232);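 as to 0.001 uM KAM: median log10 fold change of treatment over DMSO control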;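 as to 0.01 uM KAM: median log10 fold change of treatment over DMSO control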;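 as to 0.1 uM KAM: median log10 fold change of treatment over DMSO control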;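 as to 1 uM KAM: median log10 fold change of treatment over DMSO control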;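 as to 10 uM KAM: median log10 fold change of treatment over DMSO control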
T4 construct: endogenous in cells; host or cells: K562
T4 sequence (Q13232 1-169): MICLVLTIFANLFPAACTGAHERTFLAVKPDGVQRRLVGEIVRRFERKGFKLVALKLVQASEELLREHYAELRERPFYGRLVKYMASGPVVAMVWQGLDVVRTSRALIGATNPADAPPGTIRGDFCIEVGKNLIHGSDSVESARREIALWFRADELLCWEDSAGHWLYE
Description: as §1

PRKCB = molecular target: T5, PRKCB (Homo sapiens, UniProt P05771)
T5 construct: endogenous in cells; host or cells: K562
Description: as §1

RAF1 = molecular target: T6, RAF1 (Homo sapiens, UniProt P04049);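 as to 0.001 uM KAM: median log10 fold change of treatment over DMSO control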;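 as to 0.01 uM KAM: median log10 fold change of treatment over DMSO control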;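 as to 0.1 uM KAM: median log10 fold change of treatment over DMSO control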;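 as to 1 uM KAM: median log10 fold change of treatment over DMSO control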;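 as to 10 uM KAM: median log10 fold change of treatment over DMSO control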
T6 construct: endogenous in cells; host or cells: K562
Description: as §1

STK17A = molecular target: T7, STK17A (Homo sapiens, UniProt Q9UEE5)
T7 construct: endogenous in cells; host or cells: K562 cell lysate
T7 sequence (Q9UEE5 1-414): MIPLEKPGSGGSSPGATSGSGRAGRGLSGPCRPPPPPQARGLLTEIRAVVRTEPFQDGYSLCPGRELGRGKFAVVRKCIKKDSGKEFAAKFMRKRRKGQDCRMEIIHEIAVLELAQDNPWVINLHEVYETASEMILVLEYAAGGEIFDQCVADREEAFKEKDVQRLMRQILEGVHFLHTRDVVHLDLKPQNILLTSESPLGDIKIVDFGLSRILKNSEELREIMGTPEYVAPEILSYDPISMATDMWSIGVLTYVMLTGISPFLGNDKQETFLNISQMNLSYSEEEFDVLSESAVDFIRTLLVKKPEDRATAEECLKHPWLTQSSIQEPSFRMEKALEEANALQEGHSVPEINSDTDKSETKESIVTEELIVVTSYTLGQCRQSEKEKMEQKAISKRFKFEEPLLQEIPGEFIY
Description: as §1

[1] = KAM 0.001-10 uM, read-out: RB50 (the source's name)
[2] = read-out: RB50 (the source's name)

T5 sequence (P05771 whole entry): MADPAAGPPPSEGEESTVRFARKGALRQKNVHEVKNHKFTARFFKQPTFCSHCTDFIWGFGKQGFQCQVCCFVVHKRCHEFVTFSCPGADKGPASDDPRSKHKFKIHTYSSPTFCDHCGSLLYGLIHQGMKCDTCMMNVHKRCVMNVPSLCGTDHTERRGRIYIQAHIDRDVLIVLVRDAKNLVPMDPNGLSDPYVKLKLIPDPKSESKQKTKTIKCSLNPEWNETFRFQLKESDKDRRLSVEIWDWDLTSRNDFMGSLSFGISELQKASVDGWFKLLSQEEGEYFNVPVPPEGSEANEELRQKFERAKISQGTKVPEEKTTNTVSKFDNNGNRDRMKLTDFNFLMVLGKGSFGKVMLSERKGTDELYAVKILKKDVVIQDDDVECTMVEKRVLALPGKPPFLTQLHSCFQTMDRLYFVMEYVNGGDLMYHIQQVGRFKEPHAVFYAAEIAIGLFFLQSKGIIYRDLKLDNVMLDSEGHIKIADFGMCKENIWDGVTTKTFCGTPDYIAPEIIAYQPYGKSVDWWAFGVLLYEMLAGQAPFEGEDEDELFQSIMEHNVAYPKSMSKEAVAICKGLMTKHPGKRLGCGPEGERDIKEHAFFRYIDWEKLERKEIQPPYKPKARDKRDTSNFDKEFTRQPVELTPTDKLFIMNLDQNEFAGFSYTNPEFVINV
T3 sequence (P49137 whole entry): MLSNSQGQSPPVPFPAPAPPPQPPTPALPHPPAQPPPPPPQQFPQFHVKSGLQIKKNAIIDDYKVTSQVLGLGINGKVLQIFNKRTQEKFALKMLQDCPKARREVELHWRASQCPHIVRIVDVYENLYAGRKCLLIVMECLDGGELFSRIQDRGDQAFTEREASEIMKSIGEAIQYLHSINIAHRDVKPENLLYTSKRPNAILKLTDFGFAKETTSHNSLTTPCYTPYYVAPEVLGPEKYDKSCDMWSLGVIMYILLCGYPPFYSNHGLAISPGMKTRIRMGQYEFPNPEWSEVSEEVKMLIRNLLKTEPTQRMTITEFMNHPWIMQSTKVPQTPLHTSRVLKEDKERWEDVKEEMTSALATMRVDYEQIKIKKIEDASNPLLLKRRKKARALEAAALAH
T6 sequence (P04049 whole entry): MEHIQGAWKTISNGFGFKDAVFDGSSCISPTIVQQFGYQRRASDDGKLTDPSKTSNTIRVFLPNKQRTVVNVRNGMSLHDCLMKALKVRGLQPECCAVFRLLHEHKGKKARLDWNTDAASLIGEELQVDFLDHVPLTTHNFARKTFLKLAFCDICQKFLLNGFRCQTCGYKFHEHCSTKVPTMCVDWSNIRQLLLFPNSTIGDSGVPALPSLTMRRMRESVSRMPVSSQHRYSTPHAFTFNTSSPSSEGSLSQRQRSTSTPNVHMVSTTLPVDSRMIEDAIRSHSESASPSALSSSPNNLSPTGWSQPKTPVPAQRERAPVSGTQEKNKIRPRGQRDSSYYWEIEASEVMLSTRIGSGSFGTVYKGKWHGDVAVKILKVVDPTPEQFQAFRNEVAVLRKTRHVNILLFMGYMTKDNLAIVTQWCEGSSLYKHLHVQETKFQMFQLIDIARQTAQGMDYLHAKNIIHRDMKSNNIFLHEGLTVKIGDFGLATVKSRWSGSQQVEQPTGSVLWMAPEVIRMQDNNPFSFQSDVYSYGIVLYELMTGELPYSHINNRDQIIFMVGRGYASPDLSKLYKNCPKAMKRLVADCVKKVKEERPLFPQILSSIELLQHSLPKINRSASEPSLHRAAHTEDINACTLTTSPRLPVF

N#CCc1ccc(Nc2nc(NCCCN)cc(Nc3cc(C4CC4)[nH]n3)n2)cc1 [KAM]
IC50 (BLVRA; [1]): > 10 µM
0.001 uM KAM (BLVRA; relative to 0 uM KAM = 0): 0.01315
0.01 uM KAM (BLVRA; relative to 0 uM KAM = 0): 0.09211
0.1 uM KAM (BLVRA; relative to 0 uM KAM = 0): 0.1192
1 uM KAM (BLVRA; relative to 0 uM KAM = 0): 0.1811
10 uM KAM (BLVRA; relative to 0 uM KAM = 0): 0.1365
IC50 (JAK3; [1]): > 10 µM
0.001 uM KAM (JAK3; relative to 0 uM KAM = 0): -0.04271
0.01 uM KAM (JAK3; relative to 0 uM KAM = 0): -0.0544
0.1 uM KAM (JAK3; relative to 0 uM KAM = 0): -0.1188
1 uM KAM (JAK3; relative to 0 uM KAM = 0): -0.2952
10 uM KAM (JAK3; relative to 0 uM KAM = 0): -0.1976
IC50 (MAPKAPK2; [1]): > 10 µM
0.001 uM KAM (MAPKAPK2; relative to 0 uM KAM = 0): 0.05207
0.01 uM KAM (MAPKAPK2; relative to 0 uM KAM = 0): -0.01973
0.1 uM KAM (MAPKAPK2; relative to 0 uM KAM = 0): 0.02471
1 uM KAM (MAPKAPK2; relative to 0 uM KAM = 0): 0.08157
10 uM KAM (MAPKAPK2; relative to 0 uM KAM = 0): 0.02045
IC50 (NME3; [1]): > 10 µM
0.001 uM KAM (NME3; relative to 0 uM KAM = 0): -0.01588
0.01 uM KAM (NME3; relative to 0 uM KAM = 0): -0.01222
0.1 uM KAM (NME3; relative to 0 uM KAM = 0): -0.05319
1 uM KAM (NME3; relative to 0 uM KAM = 0): 0.05076
10 uM KAM (NME3; relative to 0 uM KAM = 0): 0.01706
median Log10 fold change (PRKCB; 0.001 uM KAM): -0.003193
median Log10 fold change (PRKCB; 0.01 uM KAM): -0.01706
median Log10 fold change (PRKCB; 0.1 uM KAM): -0.1711
median Log10 fold change (PRKCB; 1 uM KAM): -0.4944
median Log10 fold change (PRKCB; 10 uM KAM): -0.6051
IC50 (PRKCB; [2]): 0.354 µM
IC50 (RAF1; [1]): > 10 µM
0.001 uM KAM (RAF1; relative to 0 uM KAM = 0): 0.02436
0.01 uM KAM (RAF1; relative to 0 uM KAM = 0): -0.01322
0.1 uM KAM (RAF1; relative to 0 uM KAM = 0): -0.08739
1 uM KAM (RAF1; relative to 0 uM KAM = 0): -0.1339
10 uM KAM (RAF1; relative to 0 uM KAM = 0): -0.1871
median Log10 fold change (STK17A; 0.001 uM KAM): -0.02395
median Log10 fold change (STK17A; 0.01 uM KAM): -0.004192
median Log10 fold change (STK17A; 0.1 uM KAM): -0.2117
median Log10 fold change (STK17A; 1 uM KAM): -0.3947
median Log10 fold change (STK17A; 10 uM KAM): -0.5099
IC50 (STK17A; [2]): 0.457 µM
